In the assay the target is human 11b-hsd-1 (Homo sapiens, UniProt P28845). Nature of the assay: Inhibition constant Ki of human 11b-hsd-1 (3H-cortisone to 3H-cortisol conversion, HPLC). The format is biochemical. Particulars: for Ki: apparent Ki, read-out: Ki app.

Broadly, the inhibition is the share of the control response that was lost under treatment. A high value points to a response far below the control.

Like-named read-outs stand apart in the source and are kept apart here.

human 11b-hsd-1, sequence (P28845 whole entry): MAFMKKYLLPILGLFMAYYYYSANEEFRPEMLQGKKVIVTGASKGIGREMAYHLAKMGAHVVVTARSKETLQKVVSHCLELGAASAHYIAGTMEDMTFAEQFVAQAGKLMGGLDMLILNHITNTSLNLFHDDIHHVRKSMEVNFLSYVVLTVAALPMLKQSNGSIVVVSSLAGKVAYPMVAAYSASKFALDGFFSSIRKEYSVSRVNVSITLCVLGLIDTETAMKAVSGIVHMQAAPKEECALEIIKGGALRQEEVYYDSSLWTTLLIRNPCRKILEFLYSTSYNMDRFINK

`COc1cccc(CNC(=O)[C@H]2CCCN2CC2CCCC2)c1` [Example 262]: the Ki worked out at 60 nM. The same compound yielded an inhibition at 0.1 µM (0.1 μM compound) of 76%.
Take `CCCN1CCC[C@@H]1C(=O)NC1Cc2ccccc2C1` [Example 38]: the Ki (human 11b-hsd-1) was determined as 7.9 nM. The same compound showed an inhibition at 0.1 µM (compound at 0.1 μM) of 90.4%.
Consider `O=C(NCc1ccccc1F)[C@H]1CCCN1CCC(F)(F)F` [Example 229], for which the Ki is 48 nM. This compound also registered an inhibition at 0.1 µM (0.1 μM compound) of 73.7%.
The like results for `CC(C)CN1CCOC[C@@H]1C(=O)N(C)C1CCCCC1` [Example 333] were, in that order, 4 nM and 100%.
In the same order, the values of `CC(C)CN1CCOC[C@@H]1C(=O)NCc1ccc(F)cc1F` [Example 281] are 48 nM and 84.9%.
In the same order, the values of `CC[C@H]1CCN[C@@H]1C(=O)NC1C2CC3CC(C2)CC1C3` (stereo partly shown) [Example 345] are 27 nM and 76.5%.
With `CCCN1CCC[C@@H]1C(=O)NC1CCCCCC1` [Example 93], the Ki (human 11b-hsd-1) stood at 2 nM. Moreover, at 0.1 µM the inhibition (compound at 0.1 μM) was 100%.
In the case of `CCCN1CCC[C@@H]1C(=O)N[C@@H]1C[C@H]2CC[C@@H]1C2` [Example 89], testing at 0.1 µM (compound at 0.1 μM) gave an inhibition of 92%.
Turning to `Cc1ccccc1O[C@@H]1CN[C@H](C(=O)NC2C3CC4CC(C3)CC2C4)C1` (stereo partly shown) [Example 320], the Ki worked out at 5.5 nM. Where the note is “0.1 μM compound”, this compound registered an inhibition at 0.1 µM of 100%.
On to `O=C(NC1CCCCC1)[C@H]1C[C@@H](O)CN1CC1CCCC1` [Example 30], for which at 0.1 µM the inhibition (compound at 0.1 μM) was 63%.
On to `O=C(NC1C2CC3CC(C2)CC1C3)[C@H]1COCCN1CC1CC1` (stereo partly shown) [Example 279], for which the Ki came out at 3 nM. The inhibition at 0.1 µM (0.1 μM compound) was determined as 100%.
For the compound `CCOCCN1CCC[C@@H]1C(=O)NC1CCCCC1` [Example 95], the Ki (human 11b-hsd-1) came out at 39 nM. The compound further came in with an inhibition at 0.1 µM (compound at 0.1 μM) of 78%.
Regarding `CC(C)[C@H]1CCN[C@@H]1C(=O)NC1C2CC3CC(C2)CC1C3` (stereo partly shown) [Example 344], the Ki was 11 nM. Where the note is “0.1 μM compound”, this compound displayed an inhibition at 0.1 µM of 90.7%.
In the case of `C[C@@H](NC(=O)[C@H]1CCCN1Cc1ccccc1)c1ccc(Cl)cc1` [Example 296], the Ki is 11.4 nM. Also, the inhibition at 0.1 µM (0.1 μM compound) stood at 95.7%.
In the same order, the values of `CCOc1ccccc1O[C@@H]1CN[C@H](C(=O)NC2C3CC4CC(C3)CC2C4)C1` (stereo partly shown) [Example 361] are 1.9 nM and 100%.
The like results for `O=C(NC1C2CC3CC(C2)CC1C3)[C@@H]1C[C@H](Oc2c(F)cc(F)cc2F)CN1` (stereo partly shown) [Example 363] were, in that order, 1 nM and 100%.
Compound `C[C@@H](O)CN1CCC[C@@H]1C(=O)NC1C2CC3CC(C2)CC1C3` (stereo partly shown) [Example 118] registered an inhibition at 0.1 µM (compound at 0.1 μM) of 100%.
Take `CC(C)CN1CCC[C@@H]1C(=O)NC(C)c1ccc(F)cc1` (stereo partly shown) [Example 290]: the Ki turned out to be 6.85 nM. In addition, for the setting “0.1 μM compound”, the inhibition at 0.1 µM was 96.2%.
As for `CC(C)OCCN1CCC[C@@H]1C(=O)NC1CCCCC1` [Example 96], the Ki (human 11b-hsd-1) stood at 39 nM. Besides, under “compound at 0.1 μM”, the inhibition at 0.1 µM was 84%.
`O=C(NC1C2CC3CC(C2)CC1C3)[C@H]1NCC[C@@H]1c1ccc(Cl)cc1` (stereo partly shown) [Example 367]: the Ki stood at 7.5 nM. For the setting “0.1 μM compound”, this compound returned an inhibition at 0.1 µM of 93.5%.
Consider `CCOc1ccccc1CNC(=O)[C@H]1COCCN1CC(C)C` [Example 35], for which the Ki (human 11b-hsd-1) was 22.6 nM. Testing at 0.1 µM (compound at 0.1 μM) gave an inhibition of 82%.
As for `CC(C)CN1CCOC[C@@H]1C(=O)NCc1ccccc1` [Example 278], the Ki came out at 49.2 nM. 0.1 µM produced 76% inhibition (0.1 μM compound).
The like results for `CN(Cc1ccccc1Cl)C(=O)[C@H]1COCCN1CC1CCCC1` [Example 312] were, in that order, 14 nM and 95.3%.
In the same order, the values of `Cc1ccccc1CNC(=O)[C@H]1CCCN1Cc1ccccc1` [Example 246] are 16 nM and 87.7%.
Where the note is “compound at 0.1 μM”, `CCCN1CCC[C@@H]1C(=O)NC1CCC(F)(F)CC1` [Example 137] returned an inhibition at 0.1 µM of 87%.
Take `N#Cc1ccc(CN2CCC[C@@H]2C(=O)N[C@@H]2CCc3ccccc32)cc1` [Example 285]: the Ki was determined as 7.82 nM. In addition, under “0.1 μM compound”, at 0.1 µM the inhibition was 100%.
In the same order, the values of `O=C(NC1C2CC3CC(C2)CC1C3)[C@H]1NCC[C@@H]1C1CCCC1` (stereo partly shown) [Example 342] are 9.9 nM and 97.5%.
As for `O=C(NCc1ccccc1)[C@H]1CCCN1CC1CCCC1` [Example 226], the Ki was determined as 22 nM. Moreover, the inhibition at 0.1 µM (0.1 μM compound) was determined as 82.2%.
The like results for `Cc1cc(O[C@@H]2CN[C@H](C(=O)NC3C4CC5CC(C4)CC3C5)C2)ccc1F` (stereo partly shown) [Example 351] were, in that order, 1 nM and 100%.
With `CC(C)CN1CCC[C@@H]1C(=O)N[C@@H]1CCc2ccccc21` [Example 291], the Ki was found to be 1 nM. Also, the inhibition at 0.1 µM (0.1 μM compound) is 100%.
Regarding `N#Cc1cccc(CN2CCOCC2C(=O)NC23CC4CC(CC(C4)C2)C3)c1` (stereo not shown) [Example 179], the Ki (human 11b-hsd-1) is 2 nM. Also, the inhibition at 0.1 µM (compound at 0.1 μM) is 100%.
With `O=C(NC1C2CC3CC(C2)CC1C3)[C@H]1CCCN1CCN1CCCC1` (stereo partly shown) [Example 132], 0.1 µM produced 92% inhibition (compound at 0.1 μM).
Regarding `O=C(NC1C2CC3CC(C2)CC1C3)[C@@H]1C[C@H](Oc2ccc(Cl)cc2)CN1` (stereo partly shown) [Example 339], the Ki worked out at 1 nM. Also, the inhibition at 0.1 µM (0.1 μM compound) is 97.7%.
Consider `CC(C)N1CCC(CN2CCOC[C@@H]2C(=O)NC2C3CC4CC(C3)CC2C4)CC1` (stereo partly shown) [Example 73], for which the inhibition at 0.1 µM (compound at 0.1 μM) is 83%.
For the compound `N#Cc1ccccc1CN1CCOC[C@@H]1C(=O)N[C@@H]1CCc2ccccc21` [Example 305], the Ki was 3.4 nM. For the setting “0.1 μM compound”, this compound displayed an inhibition at 0.1 µM of 98.7%.
The like results for `O=C(N[C@@H]1CCc2ccccc21)[C@H]1COCCN1Cc1ccccc1` [Example 304] were, in that order, 3.6 nM and 59.4%.
With `CCOc1ccccc1CNC(=O)[C@H]1CCCN1CC1CCCC1` [Example 54], where the note is “human 11b-hsd-1”, the Ki stood at 13.2 nM. Further, under “compound at 0.1 μM”, testing at 0.1 µM gave an inhibition of 94%.
The like results for `COC(C)(C)CN1CCC[C@@H]1C(=O)NC1CCCCC1` [Example 88, 1-(2-Methoxy-2-methyl-propyl)-pyrrolidine-2-carboxylic acid cyclohexylamide] were, in that order, 7 nM and 94%.
Take `CCC1CCCCN1C(=O)[C@H]1CSCN1Cc1ccc(Cl)cc1` (stereo partly shown) [Example 198]: the Ki is 2.5 nM. The compound further had an inhibition at 0.1 µM (0.1 μM compound) of 100%.
In the same order, the values of `CCCN1CCC[C@@H]1C(=O)N[C@@H]1CCc2ccccc21` [Example 286] are 5.8 nM and 91.4%.
As for `CCCN1CCC[C@@H]1C(=O)N[C@@H]1CCCc2ccccc21` [Example 56], the Ki (human 11b-hsd-1) is 8 nM. This compound displayed an inhibition at 0.1 µM (compound at 0.1 μM) of 92%.
As for `O=C(N[C@@H]1CCCc2ccccc21)[C@H]1CCCN1CC1CCCC1` [Example 299], the Ki was 2.23 nM. For the same compound, the inhibition at 0.1 µM (0.1 μM compound) is 100%.
In the same order, the values of `O=C(N[C@@H]1CCCc2ccccc21)[C@H]1COCCN1Cc1ccccc1` [Example 313] are 4.89 nM and 97%.
In the same order, the values of `CC(C)CN1CCC[C@@H]1C(=O)NCc1ccccn1` [Example 219] are 168 nM and 86.6%.
The like results for `CCC1CCCCN1C(=O)[C@H]1CCCN1Cc1ccc(Cl)cc1` (stereo partly shown) [Example 197] were, in that order, 50 nM and 73.2%.
`O=C(NC1CCCCC1)[C@@H]1C[C@H](Oc2cc(F)ccc2F)CN1` [Example 371] yielded an inhibition at 0.1 µM (0.1 μM compound) of 86.2%.
On to `O=C(NC1C2CC3CC(C2)CC1C3)[C@H]1CCCN1CC1CCNC1` (stereo partly shown) [Example 142], for which, where the note is “compound at 0.1 μM”, the inhibition at 0.1 µM worked out at 100%.
`CCCN1CCOC[C@@H]1C(=O)NC1C2CC3CC(C2)CC1C3` (stereo partly shown) [Example 65]: under “human 11b-hsd-1”, the Ki amounted to 2.6 nM. Under “compound at 0.1 μM”, this compound yielded an inhibition at 0.1 µM of 100%.
For `C[C@@H](NC(=O)[C@H]1COCCN1Cc1ccccc1)c1ccc(Cl)cc1` [Example 314], the Ki is 8.96 nM. This compound also came in with an inhibition at 0.1 µM (0.1 μM compound) of 94.8%.
Turning to `CC1(C)CC(NC(=O)C2COCCN2CC2CCCCC2)CC(C)(C)C1` (stereo not shown) [Example 188], under “human 11b-hsd-1”, the Ki worked out at 1.7 nM. Where the note is “compound at 0.1 μM”, the inhibition at 0.1 µM worked out at 100%.
As for `CCN1CCC[C@@H]1C(=O)NC12CC3CC(CC(C3)C1)C2` [Example 23], where the note is “human 11b-hsd-1”, the Ki was 2.6 nM. For the setting “compound at 0.1 μM”, this compound had an inhibition at 0.1 µM of 94%.
Take `CC(C)CN1CCC[C@@H]1C(=O)NC1CCC(F)(F)CC1` [Example 136]: the inhibition at 0.1 µM (compound at 0.1 μM) amounted to 100%.
Turning to `O=C(NCc1ccccc1F)[C@H]1CCCN1Cc1ccccc1` [Example 212], the Ki is 85 nM. Also, the inhibition at 0.1 µM (0.1 μM compound) is 77.6%.
In the same order, the values of `O=C(NCc1ccc(F)cc1)[C@H]1CCCN1Cc1ccccc1Cl` [Example 232] are 47 nM and 71.5%.
In the case of `CN(Cc1ccc(F)cc1)C(=O)[C@H]1COCCN1Cc1ccc(C#N)cc1` [Example 36], the Ki (human 11b-hsd-1) was 21.4 nM. The inhibition at 0.1 µM (compound at 0.1 μM) turned out to be 90%.
In the same order, the values of `CCCN1CCC[C@@H]1C(=O)NC1CCC(C)CC1` (stereo partly shown) [Example 106] are 2 nM and 100%.
In turn, `CC(C)CN1CCOC[C@@H]1C(=O)NCc1cccc(F)c1` [Example 33] yielded an inhibition at 0.1 µM (compound at 0.1 μM) of 65%.
Under “0.1 μM compound”, `O=C(NCc1ccc(Cl)cc1)[C@H]1CCCN1Cc1ccc(Cl)cc1` [Example 325] came in with an inhibition at 0.1 µM of 35.7%.
For `COc1ccccc1CNC(=O)[C@H]1CCCN1CC(C)C` [Example 255], the Ki was determined as 8.6 nM. The compound further yielded an inhibition at 0.1 µM (0.1 μM compound) of 100%.
In the case of `CCCCN1CCC[C@@H]1C(=O)NC1CCCCC1` [Example 100], where the note is “human 11b-hsd-1”, the Ki was determined as 4 nM. Moreover, at 0.1 µM the inhibition (compound at 0.1 μM) was 100%.
In the case of `CC(=O)N1CCC(CN2CCC[C@@H]2C(=O)NC2C3CC4CC(C3)CC2C4)CC1` (stereo partly shown) [Example 139], under “compound at 0.1 μM”, testing at 0.1 µM gave an inhibition of 100%.
For `CC(=O)N1CCC[C@@H]1C(=O)NC1C2CC3CC(C2)CC1C3` (stereo partly drawn) [Example 18, N-2-adamantyl-1-acetyl-D-prolinamide], the Ki (human 11b-hsd-1) was found to be 16.4 nM. Where the note is “compound at 0.1 μM”, this compound came in with an inhibition at 0.1 µM of 85%.

The values are drawn from patent US20050261290A1, “Novel compounds of proline and morpholine derivatives” (priority 2004, published 2005).
